PubChem BioAssay AID330 (DTP/NCI, 2004)
Several values for one entry are separate records, joined by “and”; a condition that tells them apart may be missing. Equal values may be shown once. Inconclusive results and toxic doses are left out. The calls were made as follows: active = survival T/C of 150% or more; inactive = T/C below 125% in these data. Peptide text beside a SMILES is read from it. * marks the point of attachment. Cbz = O=C(OCc1ccccc1)*

Tested on: P388 leukemia ip, CD2F1 mice, survival T/C
Experiment: NCI In Vivo Anticancer Drug Screen. Data for tumor model P388 Leukemia (intraperitoneal) in CD2F1 (CDF1) mice
Settings: endpoint: median survival time, higher = longer survival
Procedure, shortened: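 Mice carrying the transplanted tumor received test compound or vehicle. Survival was recorded in each group, and the value is the treated-group measurement divided by that of the vehicle-treated control group.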

[1] = dose: 50.0 mg/kg/injection, schedule: Q01DX009 (ip), vehicle: Klucel (hydroxypropylcellulose) (HPC)
[2] = dose: 100.0 mg/kg/injection, schedule: Q01DX009 (ip), vehicle: Klucel (hydroxypropylcellulose) (HPC)
[3] = dose: 120.0 mg/kg/injection, schedule: Q01DX005 (ip), vehicle: Klucel (hydroxypropylcellulose) (HPC)
[4] = dose: 50.0 mg/kg/injection, schedule: Q01DX005 (ip), vehicle: saline with Tween-80
[5] = dose: 100.0 mg/kg/injection, schedule: Q01DX005 (ip), vehicle: saline with Tween-80
[6] = dose: 200.0 mg/kg/injection, schedule: Q01DX005 (ip), vehicle: saline with Tween-80
[7] = dose: 60.0 mg/kg/injection, schedule: Q01DX005 (ip), vehicle: saline with Tween-80
[8] = dose: 120.0 mg/kg/injection, schedule: Q01DX005 (ip), vehicle: saline with Tween-80
[9] = dose: 240.0 mg/kg/injection, schedule: Q01DX005 (ip), vehicle: saline with Tween-80

Measured: T/C

CCOC1NC(=O)Oc2ccccc21 (stereo not given)
inactive: dose: 3.12 mg/kg/injection, schedule: Q01DX005 (ip), vehicle: Klucel (hydroxypropylcellulose) (HPC) 100 % of control | dose: 6.25 mg/kg/injection, schedule: Q01DX005 (ip), vehicle: Klucel (hydroxypropylcellulose) (HPC) 96 % of control | dose: 12.5 mg/kg/injection, schedule: Q01DX005 (ip), vehicle: Klucel (hydroxypropylcellulose) (HPC) 103 % of control and 105 % of control | dose: 12.5 mg/kg/injection, schedule: Q01DX009 (ip), vehicle: Klucel (hydroxypropylcellulose) (HPC) 96 % of control | dose: 25.0 mg/kg/injection, schedule: Q01DX009 (ip), vehicle: Klucel (hydroxypropylcellulose) (HPC) 100 % of control and 105 % of control | [1] 100 % of control and 103 % of control (2×) | dose: 72.0 mg/kg/injection, schedule: Q01DX005 (ip), vehicle: Klucel (hydroxypropylcellulose) (HPC) 94 % of control | [2] 108 % of control and 109 % of control and 113 % of control | [3] 102 % of control
active: dose: 400.0 mg/kg/injection, schedule: Q01DX009 (ip), vehicle: Klucel (hydroxypropylcellulose) (HPC) 200 % of control

CONCc1ccc(C(=O)NC(C)C)cc1
inactive: dose: 25.0 mg/kg/injection, schedule: Q01DX009 (ip), vehicle: distilled water + Tween-80 105 % of control | dose: 50.0 mg/kg/injection, schedule: Q01DX009 (ip), vehicle: distilled water + Tween-80 106 % of control | dose: 100.0 mg/kg/injection, schedule: Q01DX009 (ip), vehicle: distilled water + Tween-80 90 % of control | dose: 200.0 mg/kg/injection, schedule: Q01DX009 (ip), vehicle: distilled water + Tween-80 90 % of control

CN1CCCC1CN1CCCC1 (stereo not given)
inactive: dose: 50.0 mg/kg/injection, schedule: Q01DX005 (ip), vehicle: saline 107 % of control | dose: 100.0 mg/kg/injection, schedule: Q01DX005 (ip), vehicle: saline 102 % of control | dose: 200.0 mg/kg/injection, schedule: Q01DX005 (ip), vehicle: saline 98 % of control

O=C(Nc1ccccc1)OCc1c(COC(=O)Nc2ccccc2)c(-c2ccc(Cl)c(Cl)c2)n2c1CCC2
inactive: dose: 12.5 mg/kg/injection, schedule: Q01DX005 (ip), vehicle: distilled water + Tween-80 122 % of control
active: dose: 100.0 mg/kg/injection, schedule: Q01DX005 (ip), vehicle: distilled water + Tween-80 155 % of control | dose: 200.0 mg/kg/injection, schedule: Q01DX005 (ip), vehicle: distilled water + Tween-80 160 % of control

CSCCC(NC(=O)C1CCCN1C(=O)OCc1ccccc1)C(=O)O (stereo not drawn) (Cbz-Pro-Met-OH; configuration not given here)
inactive: [4] 104 % of control | [5] 106 % of control | [6] 105 % of control

COc1cccc2c1C(=O)c1c(O)c3c(c(O)c1C2=O)C[C@@](O)(C(=O)CSC(=O)c1ccccc1)C[C@@H]3OC1CC(N)C(O)C(C)O1 (stereo not given in full)
inactive: dose: 25.0 mg/kg/injection, schedule: Q01DX001 (ip), vehicle: water 123 % of control | dose: 50.0 mg/kg/injection, schedule: Q01DX001 (ip), vehicle: water 109 % of control

CC(C)(F)c1nc2cc3ccccc3cc2[nH]c1=O
inactive: dose: 100.0 mg/kg/injection, schedule: Q01DX001 (ip), vehicle: saline with Tween-80 98 % of control | dose: 200.0 mg/kg/injection, schedule: Q01DX001 (ip), vehicle: saline with Tween-80 90 % of control

COC(=O)c1nc(N)nc(C(=O)OC)c1C(=O)c1ccc(OC)cc1
inactive: dose: 60.0 mg/kg/injection, schedule: Q01DX005 (ip), vehicle: Klucel (hydroxypropylcellulose) (HPC) 101 % of control | [3] 101 % of control

[Cu+2].[NH-]CC1CCCC[N-]1.[NH-]CC1CCCC[N-]1.[O-][Cl+3]([O-])([O-])O (stereo not given)
inactive: dose: 6.25 mg/kg/injection, schedule: Q01DX009 (ip), vehicle: saline with Tween-80 103 % of control | dose: 12.5 mg/kg/injection, schedule: Q01DX009 (ip), vehicle: saline with Tween-80 100 % of control and 96 % of control | dose: 25.0 mg/kg/injection, schedule: Q01DX009 (ip), vehicle: saline with Tween-80 107 % of control

CN1CCN(C#CC(=O)c2ccc(Cl)cc2)CC1
inactive: dose: 7.5 mg/kg/injection, schedule: Q01DX005 (ip), vehicle: saline with Tween-80 114 % of control | dose: 15.0 mg/kg/injection, schedule: Q01DX005 (ip), vehicle: saline with Tween-80 117 % of control

COc1cccc(NC(=S)NCc2cccnc2)c1
inactive: [1] 101 % of control | [2] 91 % of control | dose: 200.0 mg/kg/injection, schedule: Q01DX009 (ip), vehicle: Klucel (hydroxypropylcellulose) (HPC) 111 % of control

CCCCCCCCCCCCCCCC(=O)N(CCCCN(C)C)CCCCN(C)C
inactive: dose: 1.0 mg/kg/injection, schedule: Q01DX009 (ip), vehicle: saline 86 % of control and 95 % of control | dose: 2.0 mg/kg/injection, schedule: Q01DX009 (ip), vehicle: saline 97 % of control | dose: 4.0 mg/kg/injection, schedule: Q01DX009 (ip), vehicle: saline 97 % of control | dose: 8.0 mg/kg/injection, schedule: Q01DX009 (ip), vehicle: saline 103 % of control

Cn1c(=O)c2nc(-c3cccnc3)cnc2n(C)c1=O
inactive: dose: 100.0 mg/kg/injection, schedule: Q01DX001 (ip), vehicle: Klucel (hydroxypropylcellulose) (HPC) 105 % of control | dose: 200.0 mg/kg/injection, schedule: Q01DX001 (ip), vehicle: Klucel (hydroxypropylcellulose) (HPC) 105 % of control | dose: 400.0 mg/kg/injection, schedule: Q01DX001 (ip), vehicle: Klucel (hydroxypropylcellulose) (HPC) 105 % of control

O=[N+]([O-])c1ccc(/C=C/C(CCN2CCCCC2)=N\O)o1
inactive: [7] 104 % of control | [8] 104 % of control | [9] 100 % of control

C1=C2CCc3ccc(o3)CCC(=C1)O2
inactive: [4] 100 % of control | [5] 94 % of control | [6] 93 % of control

O=C1C2C3C=CC(C2C(=O)N1Cc1ccccc1)C1C2C(=O)N(Cc4ccccc4)C(=O)C2C31 (stereo not given)
inactive: dose: 12.5 mg/kg/injection, schedule: Q01DX001 (ip), vehicle: saline with Tween-80 101 % of control | dose: 25.0 mg/kg/injection, schedule: Q01DX001 (ip), vehicle: saline with Tween-80 90 % of control

CC(=O)OC1C(C)OC(OC(=O)C2CCC3C(C2)OC2(CC(OC(=O)/C=C/c4ccccc4)C(C)CO2)C32CO2)C(OC2OC(C)C(O)C(O)C2O)C1O (stereo not given)
inactive: dose: 2.5 mg/kg/injection, schedule: Q01DX005 (ip), vehicle: saline + alcohol 96 % of control | dose: 5.0 mg/kg/injection, schedule: Q01DX005 (ip), vehicle: saline + alcohol 102 % of control and 107 % of control | dose: 10.0 mg/kg/injection, schedule: Q01DX005 (ip), vehicle: saline + alcohol 112 % of control

Cc1nn(CCO)c(-c2ccccc2)c1-n1on1-c1c(C)nn(CCO)c1-c1ccccc1
inactive: dose: 25.0 mg/kg/injection, schedule: Q01DX009 (ip), vehicle: saline 97 % of control | dose: 50.0 mg/kg/injection, schedule: Q01DX009 (ip), vehicle: saline 98 % of control | dose: 100.0 mg/kg/injection, schedule: Q01DX009 (ip), vehicle: saline 98 % of control

COc1ccc(S(N)(=O)=O)cc1C(=O)NCCN1CCN(c2cccc(C(F)(F)F)c2)CC1
inactive: dose: 50.0 mg/kg/injection, schedule: Q01DX005 (ip), vehicle: Klucel (hydroxypropylcellulose) (HPC) 99 % of control | dose: 100.0 mg/kg/injection, schedule: Q01DX005 (ip), vehicle: Klucel (hydroxypropylcellulose) (HPC) 95 % of control

COc1ccc(C(c2cc3c(cc2O)OCO3)N2CCN(C(c3ccc(OC)cc3)c3cc4c(cc3O)OCO4)CC2)cc1 (stereo not given)
inactive: [7] 87 % of control | [8] 92 % of control | [9] 87 % of control

CC(=O)CCC12CCC(=O)N1Cc1ccccc1C2=O (stereo not given)
inactive: [7] 106 % of control | [8] 123 % of control | [9] 106 % of control

O=c1[nH]c(=O)c2n[nH]nc2[nH]1
inactive: dose: 100.0 mg/kg/injection, schedule: Q01DX009 (ip), vehicle: saline with Tween-80 86 % of control | dose: 100.0 mg/kg/injection, schedule: Q04DX003 (ip), vehicle: saline with Tween-80 90 % of control | dose: 200.0 mg/kg/injection, schedule: Q01DX009 (ip), vehicle: saline with Tween-80 100 % of control | dose: 200.0 mg/kg/injection, schedule: Q04DX003 (ip), vehicle: saline with Tween-80 90 % of control | dose: 400.0 mg/kg/injection, schedule: Q01DX009 (ip), vehicle: saline with Tween-80 95 % of control | dose: 400.0 mg/kg/injection, schedule: Q04DX003 (ip), vehicle: saline with Tween-80 100 % of control

CCCCCCCn1cnc2cc(N3CCOCC3)c([N+](=O)[O-])cc2c1=O
inactive: dose: 100.0 mg/kg/injection, schedule: Q04DX003 (ip), vehicle: Klucel (hydroxypropylcellulose) (HPC) 102 % of control | dose: 200.0 mg/kg/injection, schedule: Q04DX003 (ip), vehicle: Klucel (hydroxypropylcellulose) (HPC) 95 % of control | dose: 400.0 mg/kg/injection, schedule: Q04DX003 (ip), vehicle: Klucel (hydroxypropylcellulose) (HPC) 100 % of control
